Data published in PubChem BioAssay (NCI).
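Briefly, cells in 96-well plates were exposed to five compound concentrations for 48 h, and endpoints were estimated by linear interpolation. At the GI50, growth is halved. TGI: concentration producing complete growth inhibition.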

Assays:
Experiment in all cases: NCI-60 cell line screen, 48 h
[1] = tested on: OVCAR-8 ovarian
[2] = tested on: HT29 colon
[3] = tested on: MDA-MB-435
[4] = tested on: UACC-257 melanoma
[5] = tested on: SF-295 CNS
[6] = tested on: NCI-H460 lung
[7] = tested on: CCRF-CEM leukemia
[8] = tested on: MCF7 breast
[9] = tested on: SK-MEL-5 melanoma
[10] = tested on: KM12 colon
[11] = tested on: LOX IMVI melanoma
[12] = tested on: UACC-62 melanoma
[13] = tested on: K-562 leukemia
[14] = tested on: T-47D breast
[15] = tested on: OVCAR-5 ovarian
[16] = tested on: MALME-3M melanoma
[17] = tested on: NCI-H23 lung
[18] = tested on: HL-60(TB) leukemia
[19] = tested on: M14 melanoma
[20] = tested on: MDA-MB-231 breast
[21] = tested on: HOP-62 NSCLC
[22] = tested on: NCI/ADR-RES ovarian
[23] = tested on: COLO 205 colon
[24] = tested on: HS 578T breast
[25] = tested on: SN12C renal
[26] = tested on: SW-620 colon
[27] = tested on: SF-268 CNS
[28] = tested on: OVCAR-3 ovarian
[29] = tested on: RXF 393 renal
[30] = tested on: SK-OV-3 ovarian
[31] = tested on: PC-3 prostate
[32] = tested on: A498 renal
[33] = tested on: EKVX NSCLC
[34] = tested on: HCT-15 colon
[35] = tested on: SNB-19 CNS
[36] = tested on: MOLT-4 leukemia
[37] = tested on: A549 NSCLC
[38] = tested on: SF-539 CNS
[39] = tested on: RPMI-8226 leukemia
[40] = tested on: SR leukemia
[41] = tested on: SNB-75 CNS
[42] = tested on: TK-10 renal
[43] = tested on: UO-31 renal
[44] = tested on: CAKI-1 renal
[45] = tested on: SK-MEL-28 melanoma
[46] = tested on: HCT-116 colon
[47] = tested on: ACHN renal
[48] = tested on: DU-145 prostate
[49] = tested on: U251 CNS
[50] = tested on: NCI-H226 lung
[51] = tested on: HOP-92 NSCLC
[52] = tested on: OVCAR-4 ovarian
[53] = tested on: 786-0 renal
[54] = tested on: IGROV1 ovarian
[55] = tested on: HCC-2998 colon
[56] = tested on: SK-MEL-2 melanoma
[57] = tested on: NCI-H522 lung
[58] = tested on: BT-549 breast

CC(=O)O/N=C/c1c2ccccc2cc2ccccc12
TGI [1]: 50300 nM | TGI [2]: > 100000 nM | TGI [3]: > 100000 nM | TGI [4]: > 100000 nM | TGI [5]: > 100000 nM | TGI [6]: > 100000 nM | TGI [7]: > 100000 nM | TGI [8]: > 100000 nM | TGI [9]: > 100000 nM | TGI [10]: > 100000 nM | TGI [11]: > 100000 nM | TGI [12]: > 100000 nM | TGI [13]: > 100000 nM | TGI [14]: > 100000 nM | TGI [15]: > 100000 nM | TGI [16]: > 100000 nM | TGI [17]: > 100000 nM | TGI [18]: > 100000 nM | TGI [19]: > 100000 nM | TGI [20]: > 100000 nM | TGI [21]: > 100000 nM | TGI [22]: > 100000 nM | TGI [23]: > 100000 nM | TGI [24]: > 100000 nM | TGI [25]: > 100000 nM | TGI [26]: > 100000 nM | TGI [27]: > 100000 nM | TGI [28]: > 100000 nM | TGI [29]: 86200 nM | TGI [30]: 69600 nM | TGI [31]: > 100000 nM | TGI [32]: > 100000 nM | TGI [33]: > 100000 nM | TGI [34]: > 100000 nM | TGI [35]: > 100000 nM | TGI [36]: > 100000 nM | TGI [37]: > 100000 nM | TGI [38]: > 100000 nM | TGI [39]: > 100000 nM | TGI [40]: > 100000 nM | TGI [41]: 51500 nM | TGI [42]: > 100000 nM | TGI [43]: > 100000 nM | TGI [44]: > 100000 nM | TGI [45]: > 100000 nM | TGI [46]: > 100000 nM | TGI [47]: 68500 nM | TGI [48]: > 100000 nM | TGI [49]: > 100000 nM | TGI [50]: > 100000 nM | TGI [51]: > 100000 nM

COc1ccc(-c2cnnn2-c2nonc2-n2cccc2)cc1
GI50 [1]: 425 nM | TGI [1]: 18900 nM | GI50 [2]: 128 nM | TGI [2]: 2800 nM | GI50 [52]: 1780 nM | TGI [52]: > 100000 nM | GI50 [3]: 32.5 nM | TGI [3]: 173 nM | GI50 [4]: 373 nM | TGI [4]: 35100 nM | GI50 [5]: 246 nM | TGI [5]: 6210 nM | GI50 [6]: 344 nM | TGI [6]: 11600 nM | GI50 [7]: 228 nM | TGI [7]: 3850 nM | GI50 [53]: 488 nM | TGI [53]: > 34000 nM | GI50 [8]: 277 nM | TGI [8]: 60300 nM | GI50 [9]: 324 nM | TGI [9]: 13200 nM | GI50 [10]: 160 nM | TGI [10]: 8530 nM | GI50 [11]: 594 nM | TGI [11]: 19000 nM | GI50 [12]: 529 nM | TGI [12]: 28200 nM | GI50 [13]: 39 nM | TGI [13]: > 100000 nM | GI50 [54]: 536 nM | TGI [54]: > 92800 nM | GI50 [55]: 235 nM | TGI [55]: 2890 nM | GI50 [15]: 1450 nM | TGI [15]: > 100000 nM | GI50 [16]: 382 nM | TGI [16]: 27600 nM | GI50 [17]: 246 nM | TGI [17]: 5820 nM | GI50 [18]: 177 nM | TGI [18]: 547 nM | GI50 [19]: 209 nM | TGI [19]: 6620 nM | GI50 [20]: 1210 nM | TGI [20]: > 25000 nM | GI50 [21]: 340 nM | TGI [21]: > 83100 nM | GI50 [22]: 102 nM | TGI [22]: 670 nM | GI50 [23]: 235 nM | TGI [23]: 787 nM | GI50 [56]: 189 nM | TGI [56]: 800 nM | GI50 [24]: 239 nM | TGI [24]: 2130 nM | GI50 [25]: 595 nM | TGI [25]: > 100000 nM | GI50 [57]: 136 nM | TGI [57]: 487 nM | GI50 [26]: 149 nM | TGI [26]: > 100000 nM | GI50 [27]: 520 nM | TGI [27]: 27600 nM | GI50 [28]: 179 nM | TGI [28]: 470 nM | GI50 [29]: 138 nM | TGI [29]: 609 nM | GI50 [30]: 319 nM | TGI [30]: 4280 nM | GI50 [31]: 331 nM | TGI [31]: 31900 nM | GI50 [32]: 183 nM | TGI [32]: 893 nM | GI50 [33]: 547 nM | TGI [33]: > 94700 nM | GI50 [34]: 311 nM | TGI [34]: > 100000 nM | GI50 [35]: 722 nM | TGI [35]: > 100000 nM | GI50 [36]: 498 nM | TGI [36]: 12600 nM | GI50 [37]: 450 nM | TGI [37]: > 44800 nM | GI50 [38]: 321 nM | TGI [38]: 4000 nM | GI50 [39]: 353 nM | TGI [39]: 5020 nM | GI50 [58]: 698 nM | TGI [58]: 34600 nM | GI50 [40]: 45.1 nM | TGI [40]: > 60300 nM | GI50 [41]: 222 nM | GI50 [42]: 2120 nM | TGI [42]: > 61000 nM | GI50 [43]: 298 nM | TGI [43]: 37600 nM | GI50 [44]: 245 nM | TGI [44]: > 67100 nM | GI50 [45]: 520 nM | TGI [45]: > 100000 nM | GI50 [46]: 354 nM | GI50 [47]: 1050 nM | TGI [47]: > 94000 nM | GI50 [48]: 342 nM | TGI [48]: 2620 nM | GI50 [49]: 344 nM | TGI [49]: 8410 nM | GI50 [50]: 705 nM | TGI [50]: 33300 nM | GI50 [51]: 437 nM | TGI [51]: 43900 nM

COc1cccc(/C=C/C(=O)c2c(C)nc3ccccc3c2/C=C/c2ccccc2)c1OC
GI50 [24]: 3590 nM | TGI [24]: > 100000 nM | GI50 [30]: 54100 nM | TGI [30]: > 100000 nM
